The source of these data is ChEMBL document CHEMBL4819029, “Biflavanones, Chalconoids, and Flavonoid Analogues from the Stem Bark of Ochna holstii” (J Nat Prod, 2021).

A word on the MIC: it is the lowest concentration found to suppress growth. Broadly, the pEC50 is −log10 of the EC50, conventionally taken in molar units.

pEC50: −log10 of the molar value. ≈ marks a conversion by molar mass, not a printed value. Calls of active or inactive are those of the source. The calls are words filed in the database; no cut-off is given here.

The test system of one assay is Bacillus subtilis. In words: Antibacterial activity against Bacillus subtilis incubated for 24 hrs by resazurin based assay. It is filed as functional. Background: Resazurin is reduced to fluorescent resorufin, in cell work by metabolically active cells.
Another assay concerns Escherichia coli. Kind of assay: Antibacterial activity against Escherichia coli incubated for 24 hrs by resazurin based assay. It is filed as functional, organism-based.
Another assay has as its system MCF7. In words: Cytotoxicity against human MCF7 cells assessed as reduction in cell viability after 24 hrs by PrestoBlue dye based fluorescence assay. In kind it is functional. The settings on record: MCF7, 24 h.

Compound `O=C1c2ccc(O)cc2O[C@@H](c2ccc(O)cc2)[C@@H]1[C@@H]1C(=O)c2ccc(O)cc2O[C@H]1c1ccc(O)cc1` displayed an MIC with Bacillus subtilis above 250 µM.
Still for that read-out and setting: the figure for `COc1ccc([C@H]2Oc3cc(OC)cc(O)c3C(=O)[C@@H]2[C@H]2C(=O)c3c(O)cc(OC)cc3O[C@@H]2c2ccc(O)cc2)cc1` is above 250 µM.
Consider `O=C(c1ccc(O)cc1O)[C@H]1[C@H](C(=O)c2ccc(O)cc2O)[C@H](c2ccc(O)cc2)O[C@@H]1c1ccc(O)cc1`, for which, in the assay with Escherichia coli, the outcome was inactive. In addition, the pEC50 in the assay with MCF7 is 4.62. Further, the MIC in the assay with Bacillus subtilis was above 250 µM.
In turn, `COc1cc(O)c2c(c1)O[C@@H](c1ccc(O)cc1)[C@H]([C@@H]1C(=O)c3ccc(O)cc3O[C@H]1c1ccc(O)cc1)C2=O` displayed an MIC against Bacillus subtilis of 14 µM (≈ 7.57 µg/mL).
`O=C(/C=C/c1ccc(O)c(Oc2ccc(CCC(=O)c3ccc(O)cc3O)cc2)c1)c1ccc(O)cc1O` showed an MIC with Bacillus subtilis above 250 µM.
On to `COc1cc(O)c2c(c1)OC(c1ccc(O)cc1)C(C1C(=O)c3c(O)cc(OC)cc3OC1c1ccc(O)cc1)C2=O` (stereo not drawn), for which the MIC against Bacillus subtilis is above 250 µM.
